Test [1] deals with KB. The experiment in a line: Cytotoxicity against human KB cells after 48 hrs by MTT assay. The class given is functional, cell-based. For orientation: Tetrazolium dyes change colour on reduction, which living cells bring about.
The test system of test [2] is Bel-7402. Nature of the test: Cytotoxicity against human Bel7402 cells after 48 hrs by MTT assay. The class given is functional, cell-based. The note with it: Bel-7402, 48 h.
In test [3] the test system is BGC-823. Nature of the test: Cytotoxicity against human BGC823 cells after 48 hrs by MTT assay. The note with it: BGC-823, 48 h. The class given is functional, cell-based.
Test [4] deals with HL-60. Nature of the test: Cytotoxicity against human HL60 cells after 48 hrs by MTT assay. In kind it is functional, cell-based. The note with it: HL-60, 48 h.
The test system of test [5] is DNA. The experiment in a line: Binding affinity to calf thymus DNA assessed as hypochromicity at 20 uM after 2 hrs by UV-Vis absorption titration analysis. In kind it is nucleic-acid assay. Conditions: Bos taurus.
For test [6], the system named is DNA. The experiment in a line: Binding affinity to calf thymus DNA assessed as intercalation after 2 hrs by UV-Vis absorption titration analysis. The class given is nucleic-acid assay. Conditions: Bos taurus.
In test [7] the test system is DNA. Nature of the test: Binding affinity to calf thymus DNA assessed as intercalation after 2 hrs by Stern-Volmer plot relative to control. The class given is nucleic-acid assay. The note with it: Bos taurus.
In test [8] the test system is DNA. The experiment in a line: Binding affinity to calf thymus DNA assessed as change in melting temperature at 100 uM by spectroscopic analysis. Conditions: Bos taurus. The class given is nucleic-acid assay.
In test [9] the test system is DNA. The experiment in a line: Binding affinity to calf thymus DNA assessed as conformational changes in DNA morphology at […] after 2 hrs by circular dichroism analysis. Conditions: Bos taurus. The class given is nucleic-acid assay. On the technique in general: CD spectra are sensitive to the conformation of chiral molecules.

Active and inactive are the calls of the source. The calls are words filed in the database; no cut-off is given here.

On to `COc1ccc2cc3[n+](cc2c1OC)CCc1cc2c(cc1-3)OCO2` [BERBERINE CHLORIDE], for which the IC50 (commonly the point on the concentration scale where inhibition reaches its midpoint) came out at 6.03 µM in test [1], 16.3 µM in [2], 7.04 µM in [3] and 5.83 µM in [4].
Regarding `COc1ccc2cc3[n+](cc2c1OCCOCCOCCN1CCOCC1)CCc1cc2c(cc1-3)OCO2`, in [5], the Activity was 25%. The K in test [6] is 3.45 ×10⁵ /M. The IC50 came out at 10 µM in test [1], 9.66 µM in test [2], 10.8 µM in [3] and 14.8 µM in [4]. In addition, in [7], the KSV came out at 1.79 ×10⁵ /M. In addition, the ΔTm (in general, the change in melting temperature against a reference sample) in [8] came to 1.2 °C. For the same compound, the outcome in [9] was Active.
Regarding `COc1ccc2cc3[n+](cc2c1O)CCc1cc2c(cc1-3)OCO2` [BERBERRUBINE CHLORIDE], the IC50 was found to be 6.92 µM in test [1], 34.3 µM in [2], 7.66 µM in test [3] and 11.4 µM in [4].
With `COc1ccc2cc3[n+](cc2c1OCCN1CCCCC1)CCc1cc2c(cc1-3)OCO2`, the Activity in test [5] amounted to 21%. Also, in [6], the K worked out at 1.27 ×10⁸ /M. For the same compound, the IC50 worked out at 17.1 µM in test [1], 27.5 µM in test [2], 10.2 µM in test [3] and 6.51 µM in test [4]. Besides, the KSV in test [7] is 7.09 ×10⁴ /M. In addition, the ΔTm in test [8] was found to be 2.2 °C. In [9], the outcome was Active.
Take `COc1ccc2cc3[n+](cc2c1OCCN1CCOCC1)CCc1cc2c(cc1-3)OCO2`: the Activity in [5] is 17%. Moreover, the K in [6] came out at 3.55 ×10⁸ /M. Moreover, the IC50 was determined as 5.46 µM in test [1], 11.6 µM in [2], 2.82 µM in test [3] and 2.71 µM in test [4]. The KSV in test [7] amounted to 1.27 ×10⁵ /M. The ΔTm in test [8] came to 1.4 °C. In test [9], the result was Active.
As to `COc1ccc2cc3[n+](cc2c1OCCOCCN1CCOCC1)CCc1cc2c(cc1-3)OCO2`, the Activity in test [5] was determined as 21%. Moreover, the K in [6] is 6.32 ×10⁶ /M. In addition, the IC50 in test [1] turned out to be 9.93 µM; in test [2], 9.44 µM; in test [3] it was 11.9 µM; in test [4], 16.4 µM. Further, in [7], the KSV amounted to 1.82 ×10⁵ /M. Also, the ΔTm in test [8] worked out at 1.7 °C. For the same compound, the outcome in test [9] was Active.
Turning to `COc1ccc2cc3[n+](cc2c1OCCOCCN1CCCCC1)CCc1cc2c(cc1-3)OCO2`, the Activity in test [5] came out at 19%. The K in test [6] stood at 1.49 ×10⁶ /M. The IC50 in test [1] turned out to be 19.7 µM; in test [2], 17.9 µM; in test [3], 22.2 µM; in test [4] it was 46.8 µM. Also, the KSV in [7] is 8.01 ×10⁴ /M. Further, the ΔTm in test [8] stood at 1.5 °C. For the same compound, the result in [9] was Active.
`COc1ccc2cc3[n+](cc2c1OCCOCCOCCN1CCCCC1)CCc1cc2c(cc1-3)OCO2`: in [5], the Activity was determined as 21%. The K in [6] stood at 1.86 ×10⁵ /M. The IC50 in [1] came out at 33.9 µM; in [2], 33.4 µM; in test [3], 20.6 µM; in test [4], 45.8 µM. Moreover, the KSV in [7] came out at 1.01 ×10⁵ /M. Besides, the ΔTm in test [8] was 1.3 °C. The outcome in [9] was Active.

The record behind these values is ChEMBL document CHEMBL2434919, “Synthesis, cytotoxicity, and DNA-binding property of berberine derivatives” (Med Chem Res, 2013).
